Our source for the IC50 values is patent publication US20250213555A1, “SUBSTITUTED TETRAHYDROFURAN ANALOGS AS MODULATORS OF SODIUM CHANNELS” (VERTEX PHARMACEUTICALS INCORPORATED, priority 2021, published 2025).

By pIC50 is commonly meant the IC50 on a negative log10 scale, so that one unit is a factor of ten.

SMILES strings stand for the structures. pIC50: −log10 of the molar value.

human Nav 1.8, sequence (Q9Y5Y9 126-399 limits assumed): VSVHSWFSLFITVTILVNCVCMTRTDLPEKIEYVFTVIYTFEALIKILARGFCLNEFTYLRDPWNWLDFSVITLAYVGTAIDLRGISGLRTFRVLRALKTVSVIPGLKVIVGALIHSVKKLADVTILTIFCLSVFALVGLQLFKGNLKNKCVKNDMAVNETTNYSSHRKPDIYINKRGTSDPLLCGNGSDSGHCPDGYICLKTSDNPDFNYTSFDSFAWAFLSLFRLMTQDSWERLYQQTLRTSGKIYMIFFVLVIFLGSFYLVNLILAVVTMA
human Nav 1.8, sequence (Q9Y5Y9 660-890 limits assumed): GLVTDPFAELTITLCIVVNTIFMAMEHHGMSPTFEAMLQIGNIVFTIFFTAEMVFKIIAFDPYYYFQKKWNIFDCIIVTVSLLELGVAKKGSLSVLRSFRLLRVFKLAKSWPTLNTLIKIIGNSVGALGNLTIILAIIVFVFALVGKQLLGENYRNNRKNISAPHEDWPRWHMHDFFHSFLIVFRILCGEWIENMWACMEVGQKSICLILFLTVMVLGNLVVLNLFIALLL
human Nav 1.8, sequence (Q9Y5Y9 1148-1722 limits assumed): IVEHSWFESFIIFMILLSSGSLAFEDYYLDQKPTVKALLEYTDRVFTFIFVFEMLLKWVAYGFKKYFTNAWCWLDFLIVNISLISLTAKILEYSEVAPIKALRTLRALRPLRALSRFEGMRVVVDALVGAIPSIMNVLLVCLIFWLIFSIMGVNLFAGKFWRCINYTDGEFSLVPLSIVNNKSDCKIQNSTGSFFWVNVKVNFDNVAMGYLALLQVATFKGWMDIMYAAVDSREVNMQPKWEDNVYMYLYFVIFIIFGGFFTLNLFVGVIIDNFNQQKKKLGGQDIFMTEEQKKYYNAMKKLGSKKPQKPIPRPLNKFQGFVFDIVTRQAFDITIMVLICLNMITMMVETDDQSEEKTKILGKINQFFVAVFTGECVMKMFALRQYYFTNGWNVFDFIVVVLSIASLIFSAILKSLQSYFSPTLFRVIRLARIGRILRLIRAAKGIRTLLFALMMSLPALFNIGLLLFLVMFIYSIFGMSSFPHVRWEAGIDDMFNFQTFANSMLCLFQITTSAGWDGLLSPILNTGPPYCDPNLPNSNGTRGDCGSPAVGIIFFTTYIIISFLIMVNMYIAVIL

The experiment concerns the target human Nav 1.8 (Homo sapiens, UniProt Q9Y5Y9). In words: E-VIPR assay detecting and measuring Nav inhibition properties. The format is cell-based. The settings on record: HEK cells expressing a truncated form of human Nav 1.8; compound numbers without "*" (not marked as run in the presence of human serum); read-out: measured IC50 value in the E-VIPR Assay. An excerpt: E-VIPR Assay Detecting and Measuring Nav Inhibition Properties
Sodium ion channels are voltage-dependent proteins that can be activated by inducing membrane voltage changes by applying electric fields. The electrical stimulation instrument and methods of use, referred to as E-VIPR, are described in International Publication No. WO 2002/008748 A3 and C.-J. Huang et al. Characterization of voltage-gated sodium channel blockers by electrical stimulation and fluorescence detection of membrane potential, 24 Nature Biotech. 439-46 (2006), both of which are incorporated by reference in their entirety. The instrument comprises a microtiter plate handler, an optical system for exciting the coumarin dye while simultaneously recording the coumarin and oxonol emissions, a waveform generator, a current- or voltage-controlled amplifier, and parallel electrode pairs that are inserted into assay plate wells. Under integrated computer control, this instrument passes user-programmed electrical stimulus protocols to cells within the wells of the microtiter plate.
16-20 hours prior to running the assay on E-VIPR, HEK cells expressing a truncated form of human Nav 1.8 with full channel activity were seeded into microtiter 384-well plates, pre-coated with matrigel, at a density of 25,000 cells per well. 2.5-5% KIR2.1 Bacmam virus was added to the final cell suspension before seeding into cell plates. HEK cells were grown in Dulbecco's Modified Eagle's Medium (DMEM) supplemented with 10% FBS (Fetal Bovine Serum, qualified; Sigma #F4135), 1% NEAA (Non-Essential Amino Acids, Gibco #11140), 1% HEPES (Gibco #15630), 1% Pen-Strep (Penicillin-Streptomycin; Gibco #15140) and 5 μg/ml Blasticidin (Gibco #R^210-01). Cells were expanded in vented cap cell culture flasks, with 90-95% humidity and 5% CO2.
100 mg/mL Pluronic F-127 (Sigma #P2443), in dry DMSO
Compound Plates: Corning 384-well Polypropylene Round Bottom #3656
Cell Plates: 384-well tissue culture treated plates (Greiner #781091-2B)
2.5-5% KIR 2.1 Bacmam virus (produced in-house), prepared as described in Section 3.3 of J. A. Fornwald et al., Gene Expression in Mammalian Cells Using BacMam, a Modified Baculovirus System, 1350 Methods in Molecular Biology 95-116 (2016), the entire contents of which are incorporated by reference. The concentration used can be dependent on viral titer of each batch.
5 mM DiSBAC6(3), a voltage sensitive oxonol acceptor (CAS number 169211-44-3; 5-[3-(1,3-dihexylhexahydro-4,6-dioxo-2-thioxo-5-pyrimidinyl)-2-propen-1-ylidene]-1,3-dihexyldihydro-2-thioxo-4,6 (1H,5H)-pyrimidinedione), in dry DMSO. The preparation of DiSBAC6(3) is analogous to that of DiSBAC4(3) as described in Voltage Sensing by Fluorescence Resonance Energy Transfer in Single Cells, Gonzalez, J. E. and Tsien, R. Y. (1995) Biophys. J. 69, 1272-1280.
5 mM CC2-DMPE, a commercially available membrane-bound coumarin phospholipid FRET donor (ThermoFisher Scientific catalog number K1017, CAS number 393782-57-5; tetradecanoic acid, 1,1′-[(1R)-1-[8-(6-chloro-7-hydroxy-2-oxo-2H-1-benzopyran-3-yl)-3-hydroxy-3-oxido-8-oxo-2,4-dioxa-7-aza-3-phosphaoct-1-yl]-1,2-ethanediyl] ester) was prepared in dry DMSO. See also, Improved indicators of cell membrane potential that use fluorescence resonance energy transfer, Gonzalez, J. E. and Tsien, R. Y. (1997) Chem. Biol. 4, 269-277.
Voltage Assay Background Suppression Compound (VABSC-1) is prepared in H2O (89-363 mM, range used to maintain solubility)
Human Serum (HS, Millipore #S1P1-01KL, or Sigma SLBR5469V and SLBR5470V as a 50%/50% mixture, for 25% assay final concentration)
• Sodium Chloride 160 mM (9.35 g/L), Potassium Chloride, 4.5 mM (0.335 g/L), Glucose 10 mM (1.8 g/L), Magnesium Chloride (Anhydrous) 1 mM (0.095 g/L), Calcium Chloride 2 mM (0.222 g/L), HEPES 10 mM (2.38 g/L) in water. […]
`C[C@H]1[C@@H](c2ccc(F)c(F)c2OCCN2C3COCC2C3)[C@H](C(=O)Nc2ccnc(C(N)=O)c2)O[C@@]1(C)C(F)(F)F` [Compound 131, 4-((2R,3S,4S,5R)-3-(2-(2-(3-oxa-6-azabicyclo[3.1.1]heptan-6-yl)ethoxy)-3,4-difluorophenyl)-4,5-dimethyl-5-(trifluoromethyl)tetrahydrofuran-2-carboxamido)picolinamide]: the pIC50 was 7.00 to 8.00.

`COc1c([C@H]2[C@H](C(=O)Nc3ccnc(C(=O)N4CC5COCC(C4)N5C)c3)O[C@@](C)(C(F)(F)F)[C@H]2C)ccc(F)c1F` [Compound 284, (2R,3S,4S,5R)-3-(3,4-difluoro-2-methoxyphenyl)-4,5-dimethyl-N-(2-(9-methyl-3-oxa-7,9-diazabicyclo[3.3.1]nonane-7-carbonyl)pyridin-4-yl)-5-(trifluoromethyl)tetrahydrofuran-2-carboxamide]: the pIC50 was greater than 8.00.

On to `COc1c([C@H]2[C@H](C(=O)Nc3ccnc(C(N)=O)c3)O[C@@](C)(C(F)(F)F)[C@H]2C)ccc(O)c1F` [Compound 206, 4-((2R,3S,4S,5R)-3-(3-fluoro-4-hydroxy-2-methoxyphenyl)-4,5-dimethyl-5-(trifluoromethyl)tetrahydrofuran-2-carboxamido) picolinamide], for which the pIC50 was 7.00 to 8.00.

With `COc1c([C@H]2[C@H](C(=O)Nc3ccnc(C(=O)N4C[C@H]5CC[C@@H](C4)N(C)C5)c3)O[C@@](C)(C(F)(F)F)[C@H]2C)ccc(F)c1F` [Compound 283, (2R,3S,4S,5R)-3-(3,4-difluoro-2-methoxyphenyl)-4,5-dimethyl-N-(2-((1S,5S)-6-methyl-3,6-diazabicyclo[3.2.2]nonane-3-carbonyl)pyridin-4-yl)-5-(trifluoromethyl)tetrahydrofuran-2-carboxamide], the pIC50 is greater than 8.00.

On to `C[C@H]1[C@@H](c2ccc(F)c(F)c2OCC2(CO)CC2)[C@H](C(=O)Nc2ccnc(C(N)=O)c2)O[C@@]1(C)C(F)(F)F` [Compound 95, 4-((2R,3S,4S,5R)-3-(3,4-difluoro-2-((1-(hydroxymethyl)cyclopropyl)methoxy)phenyl)-4,5-dimethyl-5-(trifluoromethyl)tetrahydrofuran-2-carboxamido)picolinamide], for which the pIC50 is greater than 8.00.

Regarding `COc1c([C@H]2[C@H](C(=O)Nc3ccnc(C(=O)N[C@H]4C[C@@H](C)CN(C)C4)c3)O[C@@](C)(C(F)(F)F)[C@H]2C)ccc(F)c1F` [Compound 290, 4-((2R,3S,4S,5R)-3-(3,4-difluoro-2-methoxyphenyl)-4,5-dimethyl-5-(trifluoromethyl)tetrahydrofuran-2-carboxamido)-N-((3S,5R)-1,5-dimethylpiperidin-3-yl)picolinamide], the pIC50 is 6.00 to 7.00.

In the case of `COc1c([C@H]2[C@H](C(=O)Nc3ccnc(C(=O)N4C[C@@H](F)[C@@H](N(C)C)C4)c3)O[C@@](C)(C(F)(F)F)[C@H]2C)ccc(F)c1F` [Compound 296, (2R,3S,4S,5R)-3-(3,4-difluoro-2-methoxyphenyl)-N-(2-((3S,4R)-3-(dimethylamino)-4-fluoropyrrolidine-1-carbonyl)pyridin-4-yl)-4,5-dimethyl-5-(trifluoromethyl)tetrahydrofuran-2-carboxamide], the pIC50 was greater than 8.00.

In the case of `COc1c([C@H]2[C@H](C(=O)Nc3ccnc(C(=O)N4CCNC[C@@H]4C)c3)O[C@@](C)(C(F)(F)F)[C@H]2C)ccc(F)c1F` [Compound 232, (2R,3S,4S,5R)-3-(3,4-difluoro-2-methoxyphenyl)-4,5-dimethyl-N-(2-((S)-2-methylpiperazine-1-carbonyl)pyridin-4-yl)-5-(trifluoromethyl)tetrahydrofuran-2-carboxamide], the pIC50 is greater than 8.00.

Take `C[C@H]1[C@@H](c2ccc(F)c(F)c2OCCN[C@@H]2CCOC2)[C@H](C(=O)Nc2ccnc(C(N)=O)c2)O[C@@]1(C)C(F)(F)F` [Compound 116, 4-((2R,3S,4S,5R)-3-(3,4-difluoro-2-(2-(((R)-tetrahydrofuran-3-yl)amino)ethoxy)phenyl)-4,5-dimethyl-5-(trifluoromethyl)tetrahydrofuran-2-carboxamido)picolinamide]: the pIC50 was 7.00 to 8.00.

`COc1c([C@H]2[C@H](C(=O)Nc3ccnc(C(=O)NC[C@H]4CCCCN4)c3)O[C@@](C)(C(F)(F)F)[C@H]2C)ccc(F)c1F` [Compound 251, 4-((2R,3S,4S,5R)-3-(3,4-difluoro-2-methoxyphenyl)-4,5-dimethyl-5-(trifluoromethyl)tetrahydrofuran-2-carboxamido)-N-(((R)-piperidin-2-yl)methyl)picolinamide]: the pIC50 is 7.00 to 8.00.

As to `COc1c([C@H]2[C@H](C(=O)Nc3ccnc(C(=O)N4CC5(CCN5C)C4)c3)O[C@@](C)(C(F)(F)F)[C@H]2C)ccc(F)c1F` [Compound 216, (2R,3S,4S,5R)-3-(3,4-difluoro-2-methoxyphenyl)-4,5-dimethyl-N-(2-(1-methyl-1,6-diazaspiro[3.3]heptane-6-carbonyl)pyridin-4-yl)-5-(trifluoromethyl)tetrahydrofuran-2-carboxamide], the pIC50 was greater than 8.00.

On to `C[C@H]1[C@@H](c2ccc(F)c(F)c2OCCN2CCC2)[C@H](C(=O)Nc2ccnc(C(N)=O)c2)O[C@@]1(C)C(F)(F)F` [Compound 54, 4-((2R,3S,4S,5R)-3-(2-(2-(azetidin-1-yl)ethoxy)-3,4-difluorophenyl)-4,5-dimethyl-5-(trifluoromethyl)tetrahydrofuran-2-carboxamido)picolinamide], for which the pIC50 was 7.00 to 8.00.

Take `CC(COc1c([C@H]2[C@H](C(=O)Nc3ccnc(C(N)=O)c3)O[C@@](C)(C(F)(F)F)[C@H]2C)cccc1C(F)(F)F)=NO` [Compound 196, 4-((2R,3S,4S,5R)-3-(2-(2-(hydroxyimino)propoxy)-3-(trifluoromethyl)phenyl)-4,5-dimethyl-5-(trifluoromethyl)tetrahydrofuran-2-carboxamido)picolinamide]: the pIC50 was greater than 8.00.

For `C[C@H]1[C@@H](c2ccc(F)c(F)c2OC2COC2)[C@H](C(=O)Nc2ccnc(C(N)=O)c2)O[C@@]1(C)C(F)(F)F` [Compound 58, 4-((2R,3S,4S,5R)-3-(3,4-difluoro-2-(oxetan-3-yloxy)phenyl)-4,5-dimethyl-5-(trifluoromethyl)tetrahydrofuran-2-carboxamido) picolinamide], the pIC50 was greater than 8.00.

On to `C[C@H]1[C@@H](c2ccc(F)c(F)c2OC2CC(C)(O)C2)[C@H](C(=O)Nc2ccnc(C(N)=O)c2)O[C@@]1(C)C(F)(F)F` (stereo partly drawn) [Compound 174, 4-((2R,3S,4S,5R)-3-(3,4-difluoro-2-(3-hydroxy-3-methylcyclobutoxy)phenyl)-4,5-dimethyl-5-(trifluoromethyl)tetrahydrofuran-2-carboxamido)picolinamide], for which the pIC50 is greater than 8.00.

`COc1c([C@H]2[C@H](C(=O)Nc3ccnc(C(=O)NCCN(C)C)c3)O[C@@](C)(C(F)(F)F)[C@H]2C)ccc(F)c1F` [Compound 271, 4-((2R,3S,4S,5R)-3-(3,4-difluoro-2-methoxyphenyl)-4,5-dimethyl-5-(trifluoromethyl)tetrahydrofuran-2-carboxamido)-N-(2-(dimethylamino)ethyl)picolinamide]: the pIC50 was greater than 8.00.
